Among the test systems are Fusarium oxysporum; Candida albicans; Trichoderma harzianum; Pachysolen tannophilus; Aspergillus niger; Kluyveromyces marxianus.
What all share (experiment): ≥ marks a high value that may be exact or a test limit, other limits are often not marked, values filed in µg/mL are converted to µM
Assay [1] has as its system Klebsiella pneumoniae LMG 20218.
Assay [2] relates to Escherichia coli LMG 15862.
Assay [3] concerns Klebsiella aerogenes LMG 02094.
Assay [4] deals with Pseudomonas aeruginosa LMG 6395.
For assay [5], the system named is Acinetobacter baumannii LMG 01041.
For assay [6], the system named is Candida albicans ATCC 10231.
The subject of assay [7] is Klebsiella pneumoniae WGLW2.
For assay [8], the system named is Pseudomonas aeruginosa PA14.
The test system of assay [9] is Staphylococcus aureus ATCC 29231.
In assay [10] the test system is Staphylococcus aureus NCTC 12981.
The test system of assay [11] is Escherichia coli NCTC 10418.

SMILES strings stand for the structures. Values after ≈ are worked out from the molar mass of the structure shown. A value given as a limit tells only on which side of the number the result lay.

One may read the MIC as the least concentration at which growth counts as inhibited. A lower MIC goes with greater potency. Consider `CC[C@H](C)[C@H](NC(=O)[C@H](CCCN=C(N)N)NC(=O)[C@H](CCC(N)=O)NC(=O)[C@@H](NC(=O)[C@@H](NC(=O)[C@@H](N)CCCCN)[C@@H](C)CC)C(C)C)C(=O)N[C@@H](CCCCN)C(=O)N[C@@H](CCCCN)C(=O)N[C@@H](Cc1c[nH]c2ccccc12)C(=O)N[C@@H](CC(C)C)C(=O)N[C@@H](CCCN=C(N)N)C(N)=O` [KIVQRIKKWLR], for which the minimal inhibitory concentration (MIC) in assay [1] was not below 32 µM; in assay [2], 16 µM (≈ 23.5 µg/mL); in assay [3], not below 256 µM; in assay [4], 16 µM (≈ 23.5 µg/mL); in [5] it was not below 128 µM.
Take `CC[C@H](C)[C@H](NC(=O)[C@H](CCCCN)NC(=O)[C@H](CCCCN)NC(=O)[C@@H](N)CC(C)C)C(=O)NCC(=O)N[C@@H](CCCCN)C(=O)N[C@@H](CCCCN)C(=O)N[C@H](C(=O)N[C@@H](Cc1c[nH]c2ccccc12)C(=O)N[C@@H](CCCN=C(N)N)C(=O)N[C@H](C(=O)NCC(=O)N[C@@H](Cc1c[nH]c2ccccc12)C(=O)N[C@@H](CC(N)=O)C(=O)N[C@H](C(=O)N[C@@H](CCCN=C(N)N)C(=O)N[C@@H](CC(=O)O)C(=O)N[C@@H](C)C(=O)N[C@H](C(=O)N[C@H](C(=O)N[C@@H](CCC(N)=O)C(=O)O)[C@@H](C)CC)[C@@H](C)O)[C@@H](C)O)C(C)C)[C@@H](C)CC` [LKKIGKKIWRVGWNTRDATIQ]: the minimum inhibitory concentration (MIC) is more than 51 µM in [6], not below 51 µM in assay [7], not below 51 µM in assay [8] and not below 51 µM in assay [9].
Regarding `NC(=O)[C@H](CCCN=C(N)N)NC(=O)[C@@H]1CCCN1C(=O)[C@@H]1CCCN1C(=O)[C@H](Cc1c[nH]c2ccccc12)NC(=O)[C@@H]1CCCN1C(=O)[C@@H](N)CCCN=C(N)N` [RPWPPR], the minimum inhibitory concentration (MIC) in assay [10] and in [11] was not below 158 µM each time.
Regarding `CC[C@H](C)[C@H](NC(=O)[C@H](CC(C)C)NC(=O)[C@@H](NC(=O)[C@@H](N)CC(=O)O)[C@@H](C)O)C(=O)NCC(=O)N[C@@H](CO)C(=O)N[C@H]1CSSC[C@@H]2NC(=O)[C@H](Cc3cnc[nH]3)NC(=O)CNC(=O)CNC(=O)[C@H](CCCCN)NC(=O)[C@H](Cc3ccc(O)cc3)NC(=O)CNC(=O)[C@H](CCCN=C(N)N)NC(=O)[C@H](CCCN=C(N)N)NC(=O)[C@H](CCCCN)NC(=O)[C@@H]3CSSC[C@@H](C(=O)N[C@@H](CCC(=O)O)C(=O)O)NC(=O)[C@H](Cc4c[nH]c5ccccc45)NC(=O)[C@H](CSSC[C@H](NC(=O)[C@H](CC(=O)O)NC(=O)[C@H](CO)NC(=O)[C@H]([C@@H](C)O)NC(=O)[C@H](Cc4ccc(O)cc4)NC(=O)[C@H](CC(N)=O)NC(=O)[C@H]([C@@H](C)O)NC(=O)[C@H](C)NC(=O)CNC(=O)[C@H](Cc4c[nH]c5ccccc45)NC(=O)[C@H](C(C)C)NC1=O)C(=O)N[C@@H](CC(N)=O)C(=O)N[C@@H](C)C(=O)N[C@@H](CCC(=O)O)C(=O)N3)NC(=O)[C@H](CC(N)=O)NC(=O)[C@H](C(C)C)NC(=O)[C@H](CC(N)=O)NC(=O)[C@H](CC(C)C)NC(=O)[C@H](Cc1ccccc1)NC(=O)[C@H](CO)NC(=O)CNC2=O` [DTLIGSCVWGATNYTSDCNAECKRRGYKGGHCGSFLNVNCWCE], the MIC in the assay with Fusarium oxysporum was 16.9 µM (≈ 79.7 µg/mL); with Candida albicans it was 8.5 µM (≈ 40.1 µg/mL); against Trichoderma harzianum, 4.2 µM (≈ 19.8 µg/mL); in the assay with Pachysolen tannophilus, 8.5 µM (≈ 40.1 µg/mL); in the assay on Aspergillus niger it was 2.1 µM (≈ 9.9 µg/mL); with Kluyveromyces marxianus it was 8.5 µM (≈ 40.1 µg/mL).

These data come from DBAASP.
